Test: Particle size measured using a particle size analyzer
Format: physicochemical
Conditions: before supercritical processing
Method: At first, pretreated salicylic acid is 50-100 micron. In Examples, the size of salicylic acid particles prepared in following manners was measured using a particle size analyzer. Spherical nanoparticles of which the particle size is in the range of 50 to 300 nm can be obtained according to the presence of a poly(ε-caprolactone-co-methylmethacrylate) as a biodegradable polymer and operating conditions in the reactor.
As shown in the following Table 1, the present Examples represent the operating conditions of the reactor in the step of formation of a spherical structure. The temperature and the pressure of the reactor must be each above 304.2 K and 73.8 bar. The operating parameters in the reactor are the temperature and the pressure in reactor, the amount of carbon dioxide as a supercritical fluid, and the amount of the mixed solution prepared in the preparation step. In Example 1, the mixed solution contains salicylic acid of 0.0016% by weight alone without a biodegradable polymer. In Example 2 to 8, the solution contains both of salicylic acid of 0.0016% by weight and the poly(ε-caprolactone-co-methylmethacrylate) of 0.0014% by weight as a biodegradable polymer. […] In Examples 1 and 3, the change was measured at 313K and 323K by adjusting the reactor temperature. […]

O=C(O)c1ccccc1O [salicylic acid]
particle size of pretreated salicylic acid: 50-100 micron

Source: patent US20080207752A1, “Poly (epsilon-caprolactone-co-methylmethacrylate), method for preparing the same using super critical fluid, and method for preparing therapeutic agent for skin diseases such as acne, atopy and athlete's foot comprising the same” (priority 2007, published 2008)
